Data reported in ChEMBL document CHEMBL2346642, “Antioxidant and antiproliferative activity of glycosides obtained by biotransformation of xanthohumol” (Bioorg Med Chem Lett, 2013).

How the values were obtained:
[1] = tested on: Radical scavenging activity; assay: Antioxidant activity assessed as DPPH radical scavenging activity by UV-vis spectrophotometry analysis; assay type: functional
[2] = tested on: HT-29; assay: Antiproliferative activity against human HT-29 cells after 72 hrs by SRB assay; assay type: functional, cell-based
[3] = tested on: PC-3; assay: Antiproliferative activity against human PC3 cells after 72 hrs by SRB assay; assay type: functional, cell-based
[4] = tested on: MCF7; assay: Antiproliferative activity against human MCF7 cells after 72 hrs by SRB assay; assay type: functional, cell-based; conditions: MCF7, 72 h
[5] = Homo sapiens, HT-29, 72 h, read-out: IC50
[6] = Homo sapiens, PC-3, 72 h, read-out: IC50

Compound | IC50 [1] | IC50 [2, 5] | IC50 [3, 6] | IC50 [4] | IC50 ([2]; ht-29) | IC50 ([3]; pc-3)
O=C1O[C@H]([C@@H](O)CO)C(O)=C1O [ASCORBIC ACID] | 0.52 µM | – | – | – | – | –
COc1cc(O[C@@H]2O[C@H](CO)[C@@H](O)[C@H](O)[C@H]2O)c(CC=C(C)C)c(O)c1C(=O)/C=C/c1ccc(O)cc1 [XANTHOHUMOL-4'-O-BETA-D-GLUCOPYRANOSIDE] | 0.77 µM | 63.6 µM | 58.1 µM | 51.4 µM | – | –
COc1cc(O)c(CC=C(C)C)c(O)c1C(=O)/C=C/c1ccc(O)cc1 [XANTHOHUMOL] | 1.98 µM | – | – | – | – | –
COc1cc(O[C@@H]2O[C@H](CO)[C@@H](OC)[C@H](O)[C@H]2O)c(CC=C(C)C)c(O)c1C(=O)/C=C/c1ccc(O)cc1 | 9.06 µM | 51.8 µM | 47.9 µM | 19.9 µM | – | –
COc1cc(O[C@@H]2O[C@H](CO)[C@@H](O)[C@H](O)[C@H]2O)c(CC=C(C)C)c2c1C(=O)C[C@@H](c1ccc(O)cc1)O2 | 6.13 µM | – | – | 146 µM | Not Active | Not Active
